The NIST ThermoML archive (doi:10.1016/j.tca.2011.02.008)
± gives the expanded uncertainty stated by the source.

Conditions: 298.15 K; 101.33 kPa; Crystal; X-ray diffraction

| mass density [kg/m3] | SMILES |
| --- | --- |
| 1740 ± 2 | O.O.O.O.O.O.O.O=C([O-])c1cccc(C(=O)[O-])n1.O=C([O-])c1cccc(C(=O)[O-])n1.[Cu+2].[K+].[K+] [dipotassium copper 2,6-pyridinedicarboxylate heptahydrate] |
| 1723 ± 2 | O.O.O.O.O.O.O.O=C([O-])c1cccc(C(=O)[O-])n1.O=C([O-])c1cccc(C(=O)[O-])n1.[K+].[K+].[Ni+2] [dipotassium nickel 2,6-pyridinedicarboxylate heptahydrate] |
